Test results from article PMC5061733, “SpyB, a Small Heme-Binding Protein, Affects the Composition of the Cell Wall in Streptococcus pyogenes” (Frontiers in Cellular and Infection Microbiology, 2016).
Read-outs that look alike come from different tables or passages of the source.

Assays:
[1] = target: T1, SpyB (synthetic SpyB peptide); test: tryptophan fluorescence quenching; assay type: binding, Streptococcus pyogenes; settings: 5 μM SpyB, 20 mM HEPES, 100 mM NaCl, 1 mM DTT, pH 7.5, 20°C
T1 construct: chemically synthesized SpyB peptide (GenScript); SpyB is 35 residues; no tag mentioned
Excerpt: tryptophan fluorescence quenching on SpyB (synthetic SpyB peptide)

MBP-SpyB = settings: read-out: Hemin, KD; 2.5 μM (Figure 5D; Methods: 5 μM) heme-free monomer, 20 mM HEPES, 100 mM NaCl, 1 mM DTT, pH 7.5, 20°C

Q: For `C=CC1=C(C)C2=Cc3c(C=C)c(C)c4[n]3[Fe]([Cl])[n]3c(c(C)c(CCC(=O)O)c3=CC3=NC(=C4)C(C)=C3CCC(=O)O)=CC1=N2` [hemin], which Kd ([1]; read-out: Hemin, KD) is on record?
A: The Kd was 2.6 µM.

Q: And the Kd (MBP-SpyB)?
A: Its Kd is 12 µM.

Q: `C=CC1=C(C)c2cc3[nH]c(cc4nc(cc5[nH]c(cc1n2)c(C)c5CCC(=O)O)C(CCC(=O)O)=C4C)c(C)c3C=C` [protoporphyrin IX] was tested. Which Kd ([1]; read-out: Protoporphyrin IX, KD) did it give?
A: The Kd was 4.9 µM.
